Where a SMILES comes first, the peptide text is derived from it. Bridges are numbered along the chain shown (N, C = ends). [ ]: non-standard residue; d: D form. The star is where a group is joined. Ileψ(thiazoline)Cys = CC[C@H](C)[C@H](N)C1=N[C@H](C(=O)*)CS1; dOrn = NCCC[C@@H](N)C(=O)O

In the assay the test system is Lactobacillus plantarum KC3. The experiment in a line: Antibiotic susceptibility of strain (antibiotic strips on LSM solid medium). In kind it is cell-based. The note with it: 37° C., 24 hours. As for the experimental part:
In order to confirm antibiotics resistance level of the new lactic acid bacteria from the of the Lactobacillus plantarum KC3 the present disclosure, an experiment was performed as follows by applying the method described in the document
To measure the antibiotics resistance level of the strain, an MIC test was carried out. Lactic acid bacteria that were inoculated into an MRS medium (DF0881-17-5, Difco) and cultured at 37° C. for 18 hours were spread on an LSM solid medium (90% iso-sensitest broth (CM0473, Oxoid), 10% MRS medium (DF0881-17-5, Difco), and 1.5% agar (214010, Difco)). Strips for each type of antibiotics, such as Amikacin (92018, Liofilchem srl), Gentamycin (92009, Liofilchem srl), Kanamycin (92034, Liofilchem srl), Streptomycin (92112, Liofilchem srl), Penicillin-G (92102, Liofilchem srl), Oxacillin (92015, Liofilchem srl), Ampicillin (920030, Liofilchem srl), Bacitracin (92019, Liofilchem srl), Rifampicin (92001, Liofilchem srl), Polymyxin B (92004, Liofilchem srl), Chloramphenico 1(92075, Liofilchem srl), Vancomycin (92057, Liofilchem srl), and the like, were put on the medium, and the bacteria were grown at 37° C. for 24 hours.
In Table 4, R indicates resistance and represents that the size of an inhibition zone is about 0 mm; IS indicates mediate resistance and represents that the size of an inhibition zone is in a range of about 1 mm to about 5 mm; and S indicates susceptibility and represents that the size of an inhibition zone is greater than about 5 mm.
As to `NCC[C@H](O)C(=O)N[C@@H]1C[C@H](N)[C@@H](O[C@H]2O[C@H](CN)[C@@H](O)[C@H](O)[C@H]2O)[C@H](O)[C@H]1O[C@H]1O[C@H](CO)[C@@H](O)[C@H](N)[C@H]1O` [Amikacin], the “Antibiotic resistance (class)” value was “IS (IS indicates mediate resistance and represents that the size of an inhibition zone is in a range of about 1 mm to about 5 mm)”; the “Antibiotic resistance, size of inhibition zone” value amounted to 1 mm.
As to `CC1(C)S[C@@H]2[C@H](NC(=O)[C@H](N)c3ccccc3)C(=O)N2[C@H]1C(=O)O` [Ampicillin], the “Antibiotic resistance (class)” value is “S (S indicates susceptibility and represents that the size of an inhibition zone is greater than about 5 mm)”; the “Antibiotic resistance, size of inhibition zone” value was 14 mm.
On to `CC[C@H](C)[C@H](N)C1=N[C@H](C(=O)N[C@@H](CC(C)C)C(=O)N[C@H](CCC(=O)O)C(=O)N[C@H](C(=O)N[C@H]2CCCCNC(=O)[C@H](CC(N)=O)NC(=O)[C@@H](CC(=O)O)NC(=O)[C@H](Cc3cnc[nH]3)NC(=O)[C@@H](Cc3ccccc3)NC(=O)[C@H]([C@@H](C)CC)NC(=O)[C@@H](CCCN)NC2=O)[C@@H](C)CC)CS1` [Bacitracin] ({Ileψ(thiazoline)Cys}-L[dE]IK[dOrn]I[dF]H[dD]N; lactam 4-C), for which the “Antibiotic resistance (class)” value was “S (S indicates susceptibility and represents that the size of an inhibition zone is greater than about 5 mm)”; the “Antibiotic resistance, size of inhibition zone” value is 7 mm.
Turning to `O=C(N[C@H](CO)[C@H](O)c1ccc([N+](=O)[O-])cc1)C(Cl)Cl` [Chloramphenicol], the “Antibiotic resistance (class)” value is “S (S indicates susceptibility and represents that the size of an inhibition zone is greater than about 5 mm)”; the “Antibiotic resistance, size of inhibition zone” value is 10 mm.
As for `NC[C@H]1O[C@H](O[C@H]2[C@H](O)[C@@H](O[C@H]3O[C@H](CO)[C@@H](O)[C@H](N)[C@H]3O)[C@H](N)C[C@@H]2N)[C@H](O)[C@@H](O)[C@@H]1O` [Kanamycin], the “Antibiotic resistance (class)” value was “R (R indicates resistance and represents that the size of an inhibition zone is about 0 mm)”; the “Antibiotic resistance, size of inhibition zone” value was 0 mm.
With `CCC[C@@H]1C[C@@H](C(=O)N[C@@H]([C@H]2O[C@H](SC)[C@H](O)[C@@H](O)[C@H]2O)[C@@H](C)O)N(C)C1` [Lincomycin], the “Antibiotic resistance (class)” value is “S (S indicates susceptibility and represents that the size of an inhibition zone is greater than about 5 mm)”; the “Antibiotic resistance, size of inhibition zone” value is given as 10 mm.
As for `CO[C@@H]1[C@@H](OC(N)=O)[C@@H](O)[C@H](Oc2ccc3c(O)c(NC(=O)c4ccc(O)c(CC=C(C)C)c4)c(=O)oc3c2C)OC1(C)C` [Novabiocin], the “Antibiotic resistance (class)” value is “S (S indicates susceptibility and represents that the size of an inhibition zone is greater than about 5 mm)”; the “Antibiotic resistance, size of inhibition zone” value stood at 7 mm.
In the case of `Cc1onc(-c2ccccc2)c1C(=O)N[C@@H]1C(=O)N2[C@@H]1SC(C)(C)[C@@H]2C(=O)O` [Oxacillin], the “Antibiotic resistance (class)” value is “IS (IS indicates mediate resistance and represents that the size of an inhibition zone is in a range of about 1 mm to about 5 mm)”; the “Antibiotic resistance, size of inhibition zone” value stood at 2 mm.
In the case of `CC1(C)S[C@@H]2[C@H](NC(=O)Cc3ccccc3)C(=O)N2[C@H]1C(=O)O` [Penicillin-G], the “Antibiotic resistance (class)” value was “IS (IS indicates mediate resistance and represents that the size of an inhibition zone is in a range of about 1 mm to about 5 mm)”; the “Antibiotic resistance, size of inhibition zone” value is on record as 5 mm.
As for `CO[C@H]1/C=C/O[C@@]2(C)Oc3c(C)c(O)c4c(O)c(c(/C=N/N5CCN(C)CC5)c(O)c4c3C2=O)NC(=O)/C(C)=C\C=C\[C@H](C)[C@H](O)[C@@H](C)[C@@H](O)[C@@H](C)[C@H](OC(C)=O)[C@@H]1C` [Rifampicin], the “Antibiotic resistance (class)” value was “S (S indicates susceptibility and represents that the size of an inhibition zone is greater than about 5 mm)”; the “Antibiotic resistance, size of inhibition zone” value stood at 7 mm.
As to `[H]/N=C(/N)N[C@H]1[C@H](O)[C@@H](O)[C@H](O[C@@H]2O[C@@H](C)[C@](O)(C=O)[C@H]2O[C@@H]2O[C@@H](CO)[C@H](O)[C@@H](O)[C@@H]2NC)[C@@H](N/C(N)=N\[H])[C@@H]1O` [Streptomycin], the “Antibiotic resistance (class)” value was “R (R indicates resistance and represents that the size of an inhibition zone is about 0 mm)”; the “Antibiotic resistance, size of inhibition zone” value came to 0 mm.
Regarding `CN[C@H](CC(C)C)C(=O)N[C@H]1C(=O)N[C@@H](CC(N)=O)C(=O)N[C@H]2C(=O)N[C@H]3C(=O)N[C@H](C(=O)N[C@H](C(=O)O)c4cc(O)cc(O)c4-c4cc3ccc4O)[C@H](O)c3ccc(c(Cl)c3)Oc3cc2cc(c3O[C@@H]2O[C@H](CO)[C@@H](O)[C@H](O)[C@H]2O[C@H]2C[C@](C)(N)[C@H](O)[C@H](C)O2)Oc2ccc(cc2Cl)[C@H]1O` [Vancomycin], the “Antibiotic resistance (class)” value was “R (R indicates resistance and represents that the size of an inhibition zone is about 0 mm)”; the “Antibiotic resistance, size of inhibition zone” value came to 0 mm.
As to Gentamycin, the “Antibiotic resistance (class)” value was “IS (IS indicates mediate resistance and represents that the size of an inhibition zone is in a range of about 1 mm to about 5 mm)”; the “Antibiotic resistance, size of inhibition zone” value is recorded as 3 mm.
On to Neomycin, for which the “Antibiotic resistance (class)” value was “IS (IS indicates mediate resistance and represents that the size of an inhibition zone is in a range of about 1 mm to about 5 mm)”; the “Antibiotic resistance, size of inhibition zone” value is listed as 3 mm.
Take Polymyxin B: the “Antibiotic resistance (class)” value was “R (R indicates resistance and represents that the size of an inhibition zone is about 0 mm)”; the “Antibiotic resistance, size of inhibition zone” value amounted to 0 mm.

The values above are taken from patent publication US20230147942A1, “PHARMACEUTICAL COMPOSITION COMPRISING NEW LACTOBACILLUS PLANTARUM KC3 STRAIN AND LEONURUS JAPONICUS EXTRACT AS ACTIVE INGREDIENTS FOR PREVENTING OR TREATING RESPIRATORY DISEASE AND USE THEREOF” (KT&G CORPORATION, priority 2020, published 2023).
